What follows are molecules tested against R232-STING (Homo sapiens, UniProt Q86WV6, H232R) (assay: biochemical).
Sequence of R232-STING (Q86WV6 155-341 H232R): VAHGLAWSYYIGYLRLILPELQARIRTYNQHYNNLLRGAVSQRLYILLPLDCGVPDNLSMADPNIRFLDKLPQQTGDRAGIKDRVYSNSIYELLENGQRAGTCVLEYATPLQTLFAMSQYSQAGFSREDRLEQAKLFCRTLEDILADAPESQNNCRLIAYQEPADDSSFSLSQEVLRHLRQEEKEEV
`CCn1nc(C)cc1-c1n[nH]c(-c2cc(C(N)=O)cc3c2cnn3CCN2CCO[C@H](CO)C2)n1` [ZZZ118, 4-[3-(1-ethyl-3-methyl-1H-pyrazol-5-yl)-1H-1,2,4-triazol-5-yl]-1-{2-[(2S)-2-(hydroxymethyl)morpholin-4-yl]ethyl}-1H-indazole-6-carboxamide] showed a Ki of 0.538 µM.
Molecule `CCn1nc(C)cc1-c1n[nH]c(-c2cc(C(N)=O)cc3c2cnn3CCN2CCOC[C@H]2CO)n1` [ZZZ120, 4-[3-(1-ethyl-3-methyl-1H-pyrazol-5-yl)-1H-1,2,4-triazol-5-yl]-1-{2-[(3R)-3-(hydroxymethyl)morpholin-4-yl]ethyl}-1H-indazole-6-carboxamide] has a Ki of 0.905 µM.
`CCn1nc(CN)cc1-c1nc(-c2nc(C(N)=O)cc3c2cnn3C)n(C)n1` [ZZZ121, 4-{3-[3-(aminomethyl)-1-ethyl-1H-pyrazol-5-yl]-1-methyl-1H-1,2,4-triazol-5-yl}-1-methyl-1H-pyrazolo[4,3-c]pyridine-6-carboxamide] was tested, and the Ki was > 0.99 µM.
With `CCn1nc(CO)cc1-c1cnc(-c2cc(C(N)=O)cc3c2cnn3C)[nH]1` [ZZZ122, 4-{5-[1-ethyl-3-(hydroxymethyl)-1H-pyrazol-5-yl]-1H-imidazol-2-yl}-1-methyl-1H-indazole-6-carboxamide] the Ki was > 0.9 µM.
Work on `CCn1nc(C)c(O)c1-c1cnc(-c2cc(C(N)=O)cc3c2cnn3C)[nH]1` [ZZZ123, 4-[5-(1-ethyl-4-hydroxy-3-methyl-1H-pyrazol-5-yl)-1H-imidazol-2-yl]-1-methyl-1H-indazole-6-carboxamide] yielded a Ki of 0.0633 µM.
`CCn1nc(C(=O)O)cc1-c1cnc(-c2cc(C(N)=O)cc3c2cnn3C)[nH]1` [ZZZ124, 5-[2-(6-carbamoyl-1-methyl-1H-indazol-4-yl)-1H-imidazol-5-yl]-1-ethyl-1H-pyrazole-3-carboxylic acid] was tested, and the Ki was > 0.09 µM.
`CCn1nc(C)cc1-c1nc(-c2nc(C(N)=O)cc3c2cnn3C)n(CCN(C)C)n1` [ZZZ125, 4-{1-[2-(dimethylamino)ethyl]-3-(1-ethyl-3-methyl-1H-pyrazol-5-yl)-1H-1,2,4-triazol-5-yl}-1-methyl-1H-pyrazolo[4,3-c]pyridine-6-carboxamide] showed a Ki of 0.512 µM.
With `CCn1nc(C)cc1-c1nc(-c2nc(C(N)=O)cc3c2cnn3C)n(CCNC)n1` [ZZZ126, 4-{3-(1-ethyl-3-methyl-1H-pyrazol-5-yl)-1-[2-(methylamino)ethyl]-1H-1,2,4-triazol-5-yl}-1-methyl-1H-pyrazolo[4,3-c]pyridine-6-carboxamide] the Ki was > 0.99 µM.
With `CCn1nc(C)c(F)c1-c1nnc(-c2cc(C(N)=O)cn3cncc23)[nH]1` [ZZZ128, 8-[5-(1-ethyl-4-fluoro-3-methyl-1H-pyrazol-5-yl)-4H-1,2,4-triazol-3-yl]imidazo[1,5-a]pyridine-6-carboxamide] the Ki was 0.556 µM.
`CCn1nc(C)c(F)c1-c1nc(-c2cc(C(N)=O)cc3c2cnn3C)n(C)n1` [ZZZ129, 4-[3-(1-ethyl-4-fluoro-3-methyl-1H-pyrazol-5-yl)-1-methyl-1H-1,2,4-triazol-5-yl]-1-methyl-1H-indazole-6-carboxamide] was tested, and the Ki was 0.952 µM.
In the case of `CCn1nc(C)c(F)c1-c1nc(-c2c(F)c(C(N)=O)cc3c2cnn3C)n(C)n1` [ZZZ130, 4-[3-(1-ethyl-4-fluoro-3-methyl-1H-pyrazol-5-yl)-1-methyl-1H-1,2,4-triazol-5-yl]-5-fluoro-1-methyl-1H-indazole-6-carboxamide], the Ki is reported as > 0.99 µM.
With `CCn1nc(C)cc1-c1nc(C(=O)O)c(-c2nc(C(N)=O)cc3c2cnn3C)o1` [ZZZ131, 5-(6-carbamoyl-1-methyl-1H-pyrazolo[4,3-c]pyridin-4-yl)-2-(1-ethyl-3-methyl-1H-pyrazol-5-yl)-1,3-oxazole-4-carboxylic acid] the Ki was > 0.99 µM.
For `Cc1cc(-c2n[nH]c(-c3nc(C(N)=O)cc4c3cnn4C)n2)n(CCCN)n1` [ZZZ132, 4-{3-[1-(3-aminopropyl)-3-methyl-1H-pyrazol-5-yl]-1H-1,2,4-triazol-5-yl}-1-methyl-1H-pyrazolo[4,3-c]pyridine-6-carboxamide], the Ki was > 0.99 µM.
